Laboratory results reported in paper PMC4652989, “A small-molecule inhibitor suppresses the tumor-associated mitochondrial NAD(P)^+-dependent malic enzyme (ME2) and induces cellular senescence” (Oncotarget, 2015).
Read-outs that look alike come from different tables or passages of the source.

Assays:
m-NAD(P)-ME Q51A/E90A = biological target: T1, m-NAD(P)-ME Q51A/E90A (Homo sapiens, UniProt P23368, E90A/Q51A); test: malic enzyme activity inhibition, dimer interface mutant; type: biochemical; conditions: Q51A/E90A pre-incubated with 40 μM EA
T1 construct: made in house; host or cells: Escherichia coli BL21
T1 sequence (P23368 19-584 Q51A/E90A): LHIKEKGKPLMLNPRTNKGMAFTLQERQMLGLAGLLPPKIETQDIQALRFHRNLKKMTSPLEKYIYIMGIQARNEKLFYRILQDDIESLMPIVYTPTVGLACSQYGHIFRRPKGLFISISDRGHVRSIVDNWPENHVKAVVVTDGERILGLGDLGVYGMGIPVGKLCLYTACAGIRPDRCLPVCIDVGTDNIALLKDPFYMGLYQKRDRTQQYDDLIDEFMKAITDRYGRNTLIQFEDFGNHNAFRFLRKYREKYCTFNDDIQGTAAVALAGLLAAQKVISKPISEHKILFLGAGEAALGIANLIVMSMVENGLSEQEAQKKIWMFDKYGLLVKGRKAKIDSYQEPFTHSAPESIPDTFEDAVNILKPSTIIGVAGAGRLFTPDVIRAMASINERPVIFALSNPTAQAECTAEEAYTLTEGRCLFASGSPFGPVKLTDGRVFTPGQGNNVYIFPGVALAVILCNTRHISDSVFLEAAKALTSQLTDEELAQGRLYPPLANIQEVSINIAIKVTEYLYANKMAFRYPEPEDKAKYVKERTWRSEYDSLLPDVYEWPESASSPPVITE
Description: (§1) The malic enzyme reaction was assayed in a reaction buffer containing 50 mM Tris-HCl (pH 7.4) with saturated concentrations of L-malate, NAD^+ or NADP^+ and MgCl2, with various concentrations of EA in a total volume of 1 ml at 30°C. The absorbance at 340 nm was continuously monitored in a UV/VIS spectrophotometer Lambda 25 (Perkin Elmer, MA, USA). In this process, one unit of enzyme was defined as the amount of enzyme that produces 1 μmol of NAD(P)H per min under the assay conditions. An absorption coefficient of 6.22 cm^−1mM^−1 for NAD(P)H was used in the calculations.
(§2) The inhibition experiments were conducted with a series of EA concentrations in a buffer containing 50 mM Tris-HCl (pH 7.4), 40 mM malate (pH 7.4), 10 mM MgCl2 and 2 mM NAD^+ (pH 7.4).

m-NAD(P)-ME E59N = biological target: T2, m-NAD(P)-ME E59N (Homo sapiens, UniProt P23368, E59N); test: malic enzyme activity inhibition, fumarate site mutant; type: biochemical; conditions: E59N pre-incubated with 40 μM EA
T2 construct: made in house; host or cells: Escherichia coli BL21
T2 sequence (P23368 19-584 E59N): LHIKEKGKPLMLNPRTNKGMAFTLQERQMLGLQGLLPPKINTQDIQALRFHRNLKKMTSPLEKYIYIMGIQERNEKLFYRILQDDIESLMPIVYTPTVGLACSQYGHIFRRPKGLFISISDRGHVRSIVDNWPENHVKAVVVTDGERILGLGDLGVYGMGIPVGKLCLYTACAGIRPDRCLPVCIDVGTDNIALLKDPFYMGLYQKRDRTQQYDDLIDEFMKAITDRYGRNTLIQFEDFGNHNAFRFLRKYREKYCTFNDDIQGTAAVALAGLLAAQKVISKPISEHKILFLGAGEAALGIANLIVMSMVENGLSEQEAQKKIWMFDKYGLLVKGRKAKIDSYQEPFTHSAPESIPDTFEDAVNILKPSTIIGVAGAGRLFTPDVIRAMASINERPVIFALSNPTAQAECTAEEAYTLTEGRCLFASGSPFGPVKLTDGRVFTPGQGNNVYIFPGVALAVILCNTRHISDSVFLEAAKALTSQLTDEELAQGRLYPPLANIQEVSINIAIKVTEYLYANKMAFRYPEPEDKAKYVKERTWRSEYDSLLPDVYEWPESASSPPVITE
Description: as §1, §2

m-NAD(P)-ME R91A = biological target: T3, m-NAD(P)-ME R91A (Homo sapiens, UniProt P23368, R91A); test: as above; type: biochemical; conditions: R91A pre-incubated with 40 μM EA
T3 construct: made in house; host or cells: Escherichia coli BL21
T3 sequence (P23368 19-584 R91A): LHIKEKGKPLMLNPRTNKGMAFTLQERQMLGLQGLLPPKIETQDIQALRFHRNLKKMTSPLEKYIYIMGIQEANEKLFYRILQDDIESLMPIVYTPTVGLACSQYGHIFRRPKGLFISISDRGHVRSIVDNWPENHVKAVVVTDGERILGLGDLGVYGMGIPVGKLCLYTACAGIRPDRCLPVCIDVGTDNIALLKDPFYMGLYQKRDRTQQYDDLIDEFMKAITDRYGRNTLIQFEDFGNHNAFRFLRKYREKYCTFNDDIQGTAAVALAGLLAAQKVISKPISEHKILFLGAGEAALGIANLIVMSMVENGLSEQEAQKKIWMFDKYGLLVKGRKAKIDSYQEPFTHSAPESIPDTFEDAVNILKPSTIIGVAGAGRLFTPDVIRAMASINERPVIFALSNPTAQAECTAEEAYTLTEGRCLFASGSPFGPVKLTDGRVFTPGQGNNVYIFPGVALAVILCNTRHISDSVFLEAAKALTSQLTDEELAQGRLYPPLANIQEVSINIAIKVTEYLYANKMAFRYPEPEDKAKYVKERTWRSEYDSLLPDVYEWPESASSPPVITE
Description: as §1, §2

H1299 cells [1] = type: cell-based, human; conditions: for H1299 cell number / decrease of H1299 cell number compared with the control: 24 h; for H1299 cell growth, time course: within 48 h
Description: H1299 cells were grown in 90% Dulbecco's Modified Eagle Medium (DMEM) with 10% fetal bovine serum (FBS) (Gibco BRL, USA) at a temperature of 37°C in a humidified 5% CO2 environment. Cells were seeded in 6-well cell culture dishes in triplicate at a density of 1 × 10^5 cells/ml medium containing 10% FBS and treated with EA or siRNA at the indicated dosage. The cells were then counted, and cell numbers were determined at the indicated time points. The control shLuc and ME2 shRNA were purchased from the Nature RNAi Core Facility, Taipei, Taiwan (NRC). The shME2 was made using pLKO 005 (TRC2 vector). The target shRNA sequence for ME2 is 5′-[…]-3′, and the target shRNA sequence for luciferase is 5′-[…]-3′.

H1299 cells [2] = test: senescence-associated β-galactosidase (SA-β-gal) assay; type: cell-based, human
Description: Cells were washed in PBS, fixed for 4 min at room temperature in approximately 2 to 3% formaldehyde or 0.2% glutaraldehyde, washed, and then incubated at 37°C under no C0_2 conditions with fresh SA-β-Gal stain solution. Cells were stained with 5-bromo-4-chloro-3-indolyl β-D-galactoside (X-Gal) for 2 to 16 h and detected using the senescence-associated β-galactosidase (SA-β-gal) assay. The percentages of SA-β-gal^+ cells were calculated by the number of positively stained cells per 1,000 cells counted in random fields.

[3] = system: m-NAD(P)-ME protein expression in H1299 cells; test: immunoblotting of m-NAD(P)-ME in H1299 cells; type: cell-based, human; conditions: various concentrations of EA, within 24 h, Western blot
Description: The supernatants were boiled in loading buffer, and an aliquot containing 100 μg of protein was separated by SDS-PAGE. After blotting, the PVDF membranes were incubated with anti-human m-NAD(P)-ME (ME2) (Sigma, St Louis, MO) and anti-β-actin antibodies (Santa Cruz) for 6 h, and membranes were then incubated for 1 h with the second antibody labeled with horseradish peroxidase. The antigen-antibody complexes were visualized using enhanced chemiluminescence (Amersham Pharmacia Biotech, USA).

[4] = system: m-NAD(P)-ME mRNA in H1299 cells; test: RT-PCR of ME2 in H1299 cells; type: cell-based, human; conditions: EA for 12 h
Description: Total RNA was isolated from H1299 cells treated with shME2 or EA for 12 h by using a total RNA reagent (MDBio, Inc., Taiwan). One microgram of RNA was reverse transcribed into cDNA using MMLV reverse transcriptase (Epicentre Biotechnologies, USA). PCR was performed in the linear range (by 25 cycles) with primers specific for ME2 and actin. The primer sequences used to amplify the target genes were as follows: ME2 forward primer, 5′-[…]-3′; ME2 reverse primer, 5′-[…]-3′; actin forward primer, 5′-[…]-3′, and reverse primer, 5′-[…]-3′.

SMILES | restoration of EA-inhibited enzyme activity by fumarate (m-NAD(P)-ME Q51A/E90A) | restoration of EA-inhibited enzyme activity by fumarate (m-NAD(P)-ME E59N) | restoration of EA-inhibited enzyme activity by fumarate (m-NAD(P)-ME R91A) | H1299 cell number (H1299 cells [1]; 5 nM EA) | H1299 cell number (H1299 cells [1]; 10 nM EA) | decrease of H1299 cell number compared with the control (H1299 cells [1]; 100 nM EA) [%] | decrease of H1299 cell number compared with the control (H1299 cells [1]; 1 μM EA) [%] | H1299 cell growth, time course (H1299 cells [1]; 1 μM EA) | decrease of H1299 cell number compared with the control (H1299 cells [1]; 10 μM EA) [%] | H1299 cell growth, time course (H1299 cells [1]; 10 μM EA, vs 1 μM) | number of SA-β-gal+ H1299 cells (H1299 cells [2]; 1 μM EA, 0-72 h) | EA-induced H1299 cell senescence (H1299 cells [2]; 10 μM EA, within 72 h, vs 1 μM) | amount of senescence after 10 μM EA relative to 1 μM EA (H1299 cells [2]; time course 0-72 h, SA-β-gal+ cells) [fold] | protein expression of m-NAD(P)-ME in H1299 cells [3] | mRNA synthesis of m-NAD(P)-ME in H1299 cells [4]
O=C(O)/C=C/C(=O)O [fumarate] | could not be restored | could not be restored | could not be restored | – | – | – | – | – | – | – | – | – | – | – | –
O=C(O)c1cc2ccccc2c(Cc2c(O)c(C(=O)O)cc3ccccc23)c1O [Embonic acid, embonic acid] | – | – | – | did not decrease | did not decrease | 23 | 30 | inhibited H1299 cell growth | 40 | more pronounced | increased in a time-dependent manner | more prominent | 2 | not influenced | not influenced
